Several values for one entry are separate records, joined by “and”; a condition that tells them apart may be missing. Equal entries are not always repeated. Entries after “also recorded” stand apart in the source; their conditions may differ.
How the values were obtained:
C. elegans AChE = assay: Determination of IC50 of compounds to AChE (Ellman method, nematode homogenate); format: biochemical; conditions: 2-h incubation at 37°C, mean ± SD, triplicates, read-out: IC50 of AChE inhibition
Method: Third-instar juvenile stage samples of C. elegans were thoroughly ground using a glass homogenizer. The homogenate was then dissolved in PBS (pH 7.0, which contained 0.1% Triton X-100) using a suitable volume, followed by a 30-min centrifugation at 6000 r/min under 4°C to harvest supernatants to analyze the enzymes ([Ellman et al., 1961]; [Zhao et al., 2018]) [Nematode (3rd instar): 4000 individuals/mL].
After dissolving the eight compounds and chlorpyrifos in acetone, multiple dilutions were made to obtain test concentrations at 5 levels. Thereafter, the test solution of every level (4 µL) was blended with the enzyme solution (96 µL), followed by 2-h incubation at 37°C in a 96-well plate. The final concentrations of compounds were 29.25, 58.50, 117.00, 234.00, and 468.00 µg/mL, respectively. Thereafter, 1.5 mM acetylthiocholine iodide (ATCHI) (50 µL) was added for a further 0.5-h incubation at 37°C. The reaction was finally terminated by adding 0.3 mM 5,5′- dithiobis (2 - nitrobenzoic acid) (DTNB) (50 µL). Afterward, the residual activity of acetylcholinesterase was measured with a microplate reader at 405 nm. Corresponding treatments were then applied to different groups as given below:
The inhibition rate (%) was calculated follows:
I%=[1−(Treatment group−Compound control group)/(Substrate control group−PBS control group)]×100%

C. elegans = assay: Toxic effects of compounds on C. elegans (lethality); format: in vivo; conditions: Caenorhabditis elegans, 48 h, mean ± SD, read-out: Lethality rate (%); for mortality at 500 µg/mL: compound 0.5 mg/mL
Method: In the toxicity analysis, 95 µL of the nematode solution (containing approximately 80 C. elegans) along with 5 µL of each compound was added to a 96-well plate. The final concentration of each compound was 0.5 mg/mL, and chlorpyrifos (20 µg/mL) was used as the positive control. The samples were mixed sufficiently, followed by 48-h incubation of plates under RT, and subsequently, the dead nematodes were counted to determine the lethality rate ([Roh and Choi, 2008]).

nematode AChE = assay: Kinetic study on the inhibitory effect of AChE by compound (Lineweaver-Burk and Dixon plots); format: biochemical, C. elegans
Method: This study prepared the enzyme solution at multiple gradients (0.125, 0.25, 0.5, and 1.0 U/mL). After adding compound 5 (29.25, 58.50, 117.00, 234.00, and 468.00 µg/mL), the mixed sample was then subjected to a 1-h incubation on a 96-well plate at 37°C (the buffer was used as a substitute for the control group). Later, 1.5 mM ATCHI (50 µL) was added and incubated for a 30-min period, followed by an addition of the 0.3 mM DTNB (50 µL). After 30 s, a microplate reader was utilized to record the OD value at 405 nm (five times at 1-min intervals). The change in the OD value every minute was used to calculate the reaction rate (ΔA/min). Later, the reaction rate curve, as a function of enzyme concentration, was plotted to compare reaction rates (v) among diverse test compound levels. Associations between diverse enzyme levels were utilized to evaluate the inhibitory effect of the compound on nematode AChE ([Xiong et al., 2016]).

| SMILES | IC50 (C. elegans AChE) | mortality at 500 µg/mL (C. elegans) | Ki (dissociation constant of the enzyme-inhibitor complex) (nematode AChE; Dixon plot, substrate 3 and 6 mM) | type of AChE inhibition (nematode AChE; enzyme-concentration plot, Lineweaver-Burk and Dixon plots) | mortality at 20 µg/mL (C. elegans; positive control 20 µg/mL) |
| --- | --- | --- | --- | --- | --- |
| C=C(C(=O)O)[C@@H]1CC[C@@]2(C)CCC(=O)C(C)=C2C1 [Compound 8, 3-oxo-di-nor-eudesma-4-en-11-oic acid] | < 710 µM and 697 µM | 34.6 ± 1.44% |  |  |  |
| C=C(C(=O)O)C1CCC2=CC(O)CC(C)C2(C)C1 (centres unmarked) [Compound 1, laggeranine A] | < 530 µM and 518 µM | 38.8 ± 2.5% |  |  |  |
| C=C(C(=O)O)[C@@H]1CC[C@@]2(C)CCCC(C)=C2C1 [Compound 4, isocostic acid] | < 530 µM and 528 µM | 30.8 ± 1.91% |  |  |  |
| C=C(C(=O)O)[C@@H]1CC[C@@]2(C)CCC[C@H](C)[C@]2(O)C1 [Compound 6, 5α-hydroxy-4α,15-dihydrocostic acid] | 470 ± 15.6 µM | 48.8 ± 2.5% |  |  |  |
| C=C(C(=O)OCC)[C@@H]1CC[C@@]2(C)CCCC(=C)[C@]2(O)C1 [Compound 2, laggeranine B] | < 710 µM and 701 µM | 31.7 ± 0.72% |  |  |  |
| C=C1CCC[C@]2(C)CC[C@@H](C(=C)C(=O)O)CC12 (some centres unmarked) [Compound 5, costic acid] | 437 ± 8.33 µM | 72.9 ± 3.15% | 24.668 µg/mL | reversible inhibitor; also recorded: mixed-type competitive |  |
| C=C(C(=O)O)[C@@H]1CC[C@@]2(C)CCCC(=C)[C@]2(O)C1 [Compound 7, 5α-hydroxycostic acid] | 485 ± 11.5 µM | 50.8 ± 1.91% |  |  |  |
| C=C(C(=O)O)[C@H]1C=C2[C@@H](C)CCC[C@]2(C)CC1 [Compound 3, eudesma-5,12-dien-13-oic acid] | 464 ± 10 µM | 60.8 ± 2.6% |  |  |  |
| CCOP(=S)(OCC)Oc1nc(Cl)c(Cl)cc1Cl [Chlorpyrifos, chlorpyrifos, reference compound] | 7.33 ± 0.58 µM |  |  |  | 81.7 ± 2.6% |
